Residues, ends and D or L forms follow the SMILES beside them.

Sequence of AChE (P22303 32-614): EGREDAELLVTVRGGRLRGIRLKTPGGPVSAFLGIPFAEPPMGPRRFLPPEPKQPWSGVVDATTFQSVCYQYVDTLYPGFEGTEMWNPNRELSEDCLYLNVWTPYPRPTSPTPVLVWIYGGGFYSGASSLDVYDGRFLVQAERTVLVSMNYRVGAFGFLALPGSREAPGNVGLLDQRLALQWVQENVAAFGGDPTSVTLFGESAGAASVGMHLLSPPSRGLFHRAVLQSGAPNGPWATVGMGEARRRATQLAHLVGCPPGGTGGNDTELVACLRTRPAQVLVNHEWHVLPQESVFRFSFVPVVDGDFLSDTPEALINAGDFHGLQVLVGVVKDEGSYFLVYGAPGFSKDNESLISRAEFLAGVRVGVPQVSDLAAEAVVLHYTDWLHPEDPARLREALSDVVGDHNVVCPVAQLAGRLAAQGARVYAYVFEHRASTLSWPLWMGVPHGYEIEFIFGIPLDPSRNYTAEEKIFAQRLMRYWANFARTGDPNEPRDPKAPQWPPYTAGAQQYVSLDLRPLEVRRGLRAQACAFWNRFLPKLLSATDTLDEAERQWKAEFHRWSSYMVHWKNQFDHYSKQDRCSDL

This experiment has as its target AChE (Homo sapiens, UniProt P22303). Kind of experiment: In vitro anti-AChE assay. The experiment is classed as biochemical.
One may read the IC50 as the concentration at which inhibition is half-maximal. Molecule `CSCC[C@H](NC(=O)[C@@H](NC(=O)[C@H](Cc1c[nH]cn1)NC(=O)[C@@H](N)CC(C)C)[C@@H](C)O)C(=O)N[C@@H](CCC(=O)O)C(=O)N[C@@H](CC(C)C)C(=O)N[C@@H](CC(C)C)C(=O)O` [LHTMELL] (H-LHTMELL-OH) gave an IC50 of 10.6 µM.

Molecule `CC(C)C[C@H](NC(=O)[C@H](Cc1c[nH]cn1)NC(=O)[C@@H](N)Cc1c[nH]c2ccccc12)C(=O)N[C@@H](CS)C(=O)N[C@H](C(=O)N[C@@H](CC(C)C)C(=O)N[C@@H](Cc1ccccc1)C(=O)O)C(C)C` [WHLCVLF] (H-WHLCVLF-OH) showed an IC50 of 1.5 µM. For `CC[C@H](C)[C@H](NC(=O)[C@H](Cc1c[nH]c2ccccc12)NC(=O)[C@@H](N)C(C)C)C(=O)N[C@H](C(=O)NCC(=O)N[C@@H](Cc1ccccc1)C(=O)N[C@@H](CCC(=O)O)C(=O)N[C@@H](Cc1c[nH]cn1)C(=O)N[C@@H](CCSC)C(=O)O)[C@@H](C)CC` [VWIIGFEHM] (H-VWIIGFEHM-OH), the IC50 amounted to 3.9 µM. In the case of `CC[C@H](C)[C@H](NC(=O)[C@@H](N)Cc1c[nH]c2ccccc12)C(=O)NCC(=O)N[C@@H](CS)C(=O)N[C@@H](Cc1c[nH]c2ccccc12)C(=O)N[C@@H](CC(=O)O)C(=O)O` [WIGCWD] (H-WIGCWD-OH) it was 1.9 µM.

The values are drawn from paper PMC12176101 (Drug Design, Development and Therapy, 2025).
